One test has as its target vcFabH1 (Vibrio cholerae serotype O1, UniProt Q9KQH5). As to the kind of experiment: biochemical. To be noted: for Reaction rate relative to that of acetyl-CoA: pH 7.5. The class given is biochemical.
For a further test, the target named is vcFabH2 (C113A) (Vibrio cholerae serotype O1, UniProt Q9KLJ3, C113A). The class given is binding. To be noted: for Binding sites/molecule (Stoichiometry): pH 7.5.
The target in another test is vcFabH2 (C356A) (Vibrio cholerae serotype O1, UniProt Q9KLJ3, C356A). The class given is binding.
In another test the target is vcFabH2 (Vibrio cholerae serotype O1, UniProt Q9KLJ3). As to the kind of experiment: biochemical. The class given is biochemical.

Usually Kd stands for the constant that tells how readily two partners part at equilibrium. Read a high Kd as weaker binding.

For `CCCCCC(=O)SCCNC(=O)CCNC(=O)[C@H](O)C(C)(C)COP(=O)(O)OP(=O)(O)OC[C@H]1O[C@@H](n2cnc3c(N)ncnc32)[C@H](O)[C@@H]1OP(=O)(O)O` [Hexanoyl-CoA], the “Reaction rate relative to that of acetyl-CoA” value (from here on “Reaction rate relative to that”) at vcFabH1 is recorded as “lower than 20%”. On vcFabH2 (C113A), the ΔH was -11780 cal/mol, the ΔS is −22.10 cal∙mol^−1∙K^−1 and the “Binding sites/molecule (Stoichiometry)” value turned out to be 0.878 ± 0.004. For the same molecule, at vcFabH2 (C356A), the “Binding sites/molecule (Stoichiometry)” value worked out at 1, the ΔH was -1847 cal/mol and the ΔS came out at 8.50 cal∙mol^−1∙K^−1.
Consider `CCCCCCCCCC(=O)SCCNC(=O)CCNC(=O)[C@H](O)C(C)(C)COP(=O)(O)OP(=O)(O)OC[C@H]1O[C@@H](n2cnc3c(N)ncnc32)[C@H](O)[C@@H]1OP(=O)(O)O` [Decanoyl-CoA], for which, at vcFabH2 (C113A), the ΔH was -7457 cal/mol, the ΔS is recorded as −4.24 cal∙mol^−1∙K^−1 and the “Binding sites/molecule (Stoichiometry)” value came out at 1.36 ± 0.01. For the same molecule, at vcFabH2 (C356A), the “Binding sites/molecule (Stoichiometry)” value was 1, the ΔH was -11680 cal/mol and the ΔS was −25.30 cal∙mol^−1∙K^−1.
As for `CC(=O)SCCNC(=O)CCNC(=O)[C@H](O)C(C)(C)COP(=O)(O)OP(=O)(O)OC[C@H]1O[C@@H](n2cnc3c(N)ncnc32)[C@H](O)[C@@H]1OP(=O)(O)O` [Acetyl-CoA], on vcFabH1, the Hill coefficient n came to 1.6±0.2, the Kd stood at 21.2 ± 2.9 µM and the “Vmax (maximum activity)” value is given as 14.0±1.1 μmol∙min^−1∙μmol^−1. Further, at vcFabH2 (C113A), the ΔH is -14490 cal/mol, the ΔS was −34.70 cal∙mol^−1∙K^−1 and the “Binding sites/molecule (Stoichiometry)” value was 0.69 ± 0.05.
For `CCCC(=O)SCCNC(=O)CCNC(=O)[C@H](O)C(C)(C)COP(=O)(O)OP(=O)(O)OC[C@H]1O[C@@H](n2cnc3c(N)ncnc32)[C@H](O)[C@@H]1OP(=O)(O)O` [Butyryl-CoA], on vcFabH2 (C113A), the ΔH was -8259 cal/mol, the ΔS is −12.00 cal∙mol^−1∙K^−1 and the “Binding sites/molecule (Stoichiometry)” value is given as 0.87 ± 0.03.
For `CCCCCCCC(=O)SCCNC(=O)CCNC(=O)[C@H](O)C(C)(C)COP(=O)(O)OP(=O)(O)OC[C@H]1O[C@@H](n2cnc3c(N)ncnc32)[C@H](O)[C@@H]1OP(=O)(O)O` [Octanoyl-CoA], the “Reaction rate relative to that” value on vcFabH1 is “lower than 20%”. In addition, at vcFabH2, the Hill coefficient n is listed as 1.8±0.2, binding was put at a Kd of 24.2 ± 2.2 µM and the “Vmax (maximum activity)” value turned out to be 18.0±1.1 μmol∙min^−1∙μmol^−1. On vcFabH2 (C113A), the ΔH was -12670 cal/mol, the ΔS is on record as −22.30 cal∙mol^−1∙K^−1 and the “Binding sites/molecule (Stoichiometry)” value came to 0.90 ± 0.01. Moreover, at vcFabH2 (C356A), the “Binding sites/molecule (Stoichiometry)” value was 1, the ΔH was -3414 cal/mol and the ΔS is given as 4.43 cal∙mol^−1∙K^−1.
On to `CCCCCCCCCCCC(=O)SCCNC(=O)CCNC(=O)[C@H](O)C(C)(C)COP(=O)(O)OP(=O)(O)OC[C@H]1O[C@@H](n2cnc3c(N)ncnc32)[C@H](O)[C@@H]1OP(=O)(O)O` [Lauroyl-CoA], for which, on vcFabH2 (C113A), the ΔH was -6563 cal/mol, the ΔS is recorded as −4.60 cal∙mol^−1∙K^−1 and the “Binding sites/molecule (Stoichiometry)” value was 1.38 ± 0.02.
Taken in the same sequence, the figures for `CC(C)C(=O)SCCNC(=O)CCNC(=O)[C@H](O)C(C)(C)COP(=O)(O)OP(=O)(O)OC[C@H]1O[C@@H](n2cnc3c(N)ncnc32)[C@H](O)[C@@H]1OP(=O)(O)O` [Isobutyryl-CoA] were -8570 cal/mol, −13.00 cal∙mol^−1∙K^−1 and 0.77 ± 0.18.
Turning to `CC(C)CC(=O)SCCNC(=O)CCNC(=O)[C@H](O)C(C)(C)COP(=O)(O)OP(=O)(O)OC[C@H]1O[C@@H](n2cnc3c(N)ncnc32)[C@H](O)[C@@H]1OP(=O)(O)O` [Isovaleryl-CoA], on vcFabH1, the “Reaction rate relative to that” value is recorded as “lower than 20%”. Also, at vcFabH2 (C113A), the ΔH was -9347 cal/mol, the ΔS is −16.20 cal∙mol^−1∙K^−1 and the “Binding sites/molecule (Stoichiometry)” value is reported as 0.74 ± 0.03.

Values taken from article PMC6105497 (The FEBS journal, 2018).
